The source of these data is publication PMC9841524, “Structure-Based Rational Design of Small α-Helical Peptides with Broad-Spectrum Activity against Multidrug-Resistant Pathogens” (Journal of Medicinal Chemistry, 2022).

Values after ≈ are worked out from the molar mass of the structure shown. Like-named read-outs stand apart in the source and are kept apart here. Where a SMILES comes first, the peptide text is derived from it. Bridges are numbered along the chain shown (N, C = ends). [ ]: non-standard residue; d: D form. The star is where a group is joined. X1 = CC[C@H](C)CCCCC(=O)*; Dab = NCC[C@H](N)C(=O)O

Test [1] deals with A. baumannii (ATCC BAA1605). Particulars: Gram-negative, footnote e ciprofloxacin (MDR in Table S3); CLSI microdilution, CAMHB, 37 °C, 24 h; highest MIC of three independent experiments in triplicate. Put shortly:
(§1)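 Broth microdilution per CLSI: overnight cultures diluted in cation-adjusted Mueller Hinton Broth to 10^6 CFU/mL, mixed with 2-fold serial peptide dilutions, incubated 37 °C for 24 h. MIC = lowest peptide concentration inhibiting growth. Three independent assays in triplicate.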

Test [2] has as its system E. coli (ATCC 25922). Particulars: for MIC, E. coli (ATCC 25922): broth microdilution (CLSI), CAMHB, 37 °C, 24 h. The essentials: as §1
Test [3] deals with E. coli (ATCC BAA-2452). Particulars: Gram-negative, NDM-1; CLSI microdilution, CAMHB, 37 °C, 24 h; highest MIC of three independent experiments in triplicate. The essentials:
as §1
(Dilution methods test growth across graded concentrations, often in twofold steps.)

Test [4] relates to K. pneumonia (ATCC BAA-2470). The note with it: Gram-negative, carbapenem-resistant; CLSI microdilution, CAMHB, 37 °C, 24 h; highest MIC of three independent experiments in triplicate. Put shortly: as §1
The test system of test [5] is Klebsiella pneumonia (ATCC 13883). The note with it: Gram-negative; CLSI microdilution, CAMHB, 37 °C, 24 h; highest MIC of three independent experiments in triplicate. The essentials:
as §1

For test [6], the system named is P. aeruginosa (ATCC 10145). The note with it: Gram-negative; CLSI microdilution, CAMHB, 37 °C, 24 h; highest MIC of three independent experiments in triplicate. The essentials: as §1
Test [7] relates to P. aeruginosa (ATCC BAA-1744). The note with it: Gram-negative, resistant strain (marked a; imipenem resistant in Table S3); CLSI microdilution, CAMHB, 37 °C, 24 h; highest MIC of three independent experiments in triplicate. The essentials: as §1
Test [8] has as its system P. aeruginosa (ATCC 27883). Kind of test: MIC, standard microtiter dilution (CLSI). Type of test: cell-based, Pseudomonas aeruginosa. The note with it: broth microdilution (CLSI), CAMHB, 37 °C, 24 h. Put shortly:
as §1

The subject of test [9] is K. pneumoniae (ATCCBAA-1705). Kind of test: MIC, standard microtiter dilution (CLSI). Particulars: broth microdilution (CLSI), CAMHB, 37 °C, 24 h. Type of test: cell-based, Klebsiella pneumoniae. Put shortly: as §1
For test [10], the system named is E. coli (ATCC BAA-2452). As to the kind of experiment: Bactericidal kinetic assay. Type of test: cell-based. As to the method: The time course of bacterial killing was studied by the exposure of overnight grown cultures of MRSA (ATCC BAA-1556) and E. coli (ATCC BAA-2452) to 8a and 8b at the MIC and 4× the MIC in Muller Hinton media. Bacterial cells (2 × 10^6 CFU/mL) were treated with peptides and standard antibiotics and incubated at 37 °C. Aliquots were withdrawn at a 30 min time interval for 4 h and plated on the agar plate to determine the number of viable bacterial colonies. Data were obtained from two independent experiments performed in triplicate.

For test [11], the system named is E. coli (ATCC BAA-2452). Kind of test: Flow cytometric analysis of PI-stained cells. The note with it: MIC and 4 × MIC, 1 h, flow cytometry. Type of test: cell-based. As for the experimental part:
The flow cytometric analysis was performed by using MRSA (ATCC BAA-1556) and E. coli (ATCC BAA-2452) cultures grown to the mid log phase in Mueller Hinton broth (HIMEDIA). Before treatment, bacterial cells were washed thrice with buffer (10 mM Tris, pH 7.4) and resuspended in the same buffer to obtain 10^7 CFU/mL bacterial suspensions. Test peptides (8a and 8b) and the standard antibiotics (daptomycin and polymyxin B) at MIC and 4 × MIC were incubated with bacterial suspension for 1 h. Following the treatment with test peptides, the cells were pelleted by centrifugation at 3000g for 15 min in a microcentrifuge. The supernatant was decanted, and the cells were washed with PBS several times and then incubated with PI ([…]) in the dark for 15 min at 37 °C. FACS analysis of the stained bacterial cells was performed using a FACscan flow cytometer (BD Accuri C6, BD Biosciences, California, USA), and data were analyzed by using Cell Quest software.
Background: A flow cytometer gives signals particle by particle.

[12] abbreviates: 10^6 CFU/mL, highest MIC of three independent experiments in triplicate.

As for `CC[C@H](C)CCCCC(=O)N[C@@H](CCN)C(=O)N[C@H](C(=O)N[C@@H](CCN)C(=O)N[C@H]1CCNC(=O)[C@H]([C@@H](C)O)NC(=O)[C@H](CCN)NC(=O)[C@H](CCN)NC(=O)[C@H](CC(C)C)NC(=O)[C@@H](Cc2ccccc2)NC(=O)[C@H](CCN)NC1=O)[C@@H](C)O` [polymyxin B, reference compound] (X1-[Dab]T[Dab][Dab][Dab][dF]L[Dab][Dab]T; lactam 4-C (inferred); N-terminus assumed), the “MIC, A. baumannii (ATCC BAA1605)” value in [1] worked out at 0.7 µg/mL. Further, in [2] (MH media without salt ions or serum, three independent experiments in triplicate), the “MIC, E. coli (ATCC 25922), Control” value was 0.7 µg/mL. The figures for the “MIC, E. coli (ATCC 25922)” value in test [2] (setting [12]) and in test [2] (value in parentheses (μM)) were 0.7 µg/mL and 0.58 µM, respectively. In [2] (media with 1 mM MgCl2, three independent experiments in triplicate), the “MIC, E. coli (ATCC 25922), MgCl2” value is 1.5 µg/mL (≈ 1.25 µM). Also, the “MIC, E. coli (ATCC 25922), CaCl2” value in test [2] (media with 2 mM CaCl2, three independent experiments in triplicate) worked out at 0.7 µg/mL (≈ 0.582 µM). In addition, the “MIC, E. coli (ATCC 25922), KCl” value in test [2] (media with 4.5 mM KCl, three independent experiments in triplicate) is recorded as 0.7 µg/mL (≈ 0.582 µM). In addition, the “MIC, E. coli (ATCC 25922), NH4Cl” value in [2] (media with 6 mM NH4Cl, three independent experiments in triplicate) came out at 0.7 µg/mL (≈ 0.582 µM). Also, the “MIC, E. coli (ATCC 25922), NaCl” value in test [2] (media with 150 mM NaCl, three independent experiments in triplicate) stood at 0.7 µg/mL (≈ 0.582 µM). For the same compound, the “MIC, E. coli (ATCC 25922), FBS (25%)” value in test [2] (media with 25% fetal bovine serum, three independent experiments in triplicate) was determined as 3.1 µg/mL (≈ 2.58 µM). Also, in test [3], the “MIC, E. coli (ATCC BAA-2452)” value came to 0.7 µg/mL. Further, the “MIC, K. pneumonia (ATCC BAA-2470)” value in test [4] came to 1.5 µg/mL. Moreover, the “MIC, Klebsiella pneumonia (ATCC 13883)” value in test [5] came to 6.2 µg/mL. Moreover, the “MIC, P. aeruginosa (ATCC 10145)” value in [6] is 0.7 µg/mL. In test [7], the “MIC, P. aeruginosa (ATCC BAA-1744)” value was found to be 0.7 µg/mL. Besides, the “MIC, P. aeruginosa (ATCC 27883)” value in test [8] (setting [12]) worked out at 1.5 µg/mL; in test [8] (value in parentheses (μM)), 1.25 µM. The “MIC, K. pneumoniae (ATCCBAA-1705)” value in [9] (setting [12]) is 0.7 µg/mL; in test [9] (value in parentheses (μM)), 0.58 µM. Further, the “time to complete eradication of E. coli cells at 4 × MIC” value in [10] is on record as 2.5 h. Moreover, the “PI-stained population of E. coli cells” value in test [11] is given as “did not significantly increase”.
